Results taken from article PMC10831936 (iScience, 2024).
Entries after “also recorded” stand apart in the source; their conditions may differ. Read-outs that look alike come from different tables or passages of the source.

What was measured:
EGFR NFAT = assay: ERBBprofiler barcoded NFAT pathway sensor, EGFR co-transfected; assay type: cell-based, Rattus norvegicus
ERBB4 NFAT = assay: ERBBprofiler barcoded NFAT pathway sensor, ERBB4 co-transfected; assay type: cell-based, Rattus norvegicus; conditions: PC12 cells; constant EGF 30 ng/mL, EGFld 10 ng/mL, serotonin 1 μM; 6 h; barcode readout; relative IC50
CRE sensor = CRE sensor only luciferase assay in PC12 cells; assay type: cell-based, Rattus norvegicus
Experimental: 50,000 PC12 cells were seeded per 96-well onto poly-L-lysin (PLL)-coated plates and transfected the following day (day in vitro 1, DIV1) with assay plasmids using Lipofectamine 3000 (Thermo Fisher Scientific). […] For pathway assays, the receptor plasmids (15 ng/well) and pathway reporter plasmids (15 ng/well) pEGR1p-luc2 for monitoring MAPK signaling, pCRE-CMVmin-luc2 for monitoring cAMP/Ca^2+ signaling, or p6xNFAT-CMVmin-luc2 for Ca^2+ signaling were used. Transient transfections were conducted according to the manufacturer’s instructions. On DIV2, cells were starved in medium containing 1% FCS for 16 h. […] In the case of antagonist assays, compounds were added at increasing doses together with the stimulus. Cells were lysed in 1x passive lysis buffer (Promega) and subjected to a firefly luciferase assay using a self-made substrate for firefly luciferase.[100] Luciferase activity was analyzed in a Mithras LB 940 Multimode Microplate Reader (Berthold Technologies). All assays were run in 96-well plates using six replicates per condition.

cAMP = assay: GloSensor cAMP assay in PC12 cells; assay type: cell-based, Rattus norvegicus
Experimental: The GloSensor cAMP assay was conducted with the same parameters (50,000 PC12 cells per 96-well) as described above for the firefly luciferase assay, with however, three differences. Specifically, (1) 30 ng/well of the pGloSensor-22F plasmid (Promega, E2301) was used for transfection, and (2) on DIV3, cells were equilibrated in assay medium containing a 2% v/v dilution of D-luciferin (Synchem, bc219) for 2 h at 37°C before (3) the treatment of compounds for 15 min and lysis in 1x passive lysis buffer (Promega) and luciferase activity measurement.

calcium = assay: Fluo-4 AM calcium assay in PC12 cells; assay type: cell-based, Rattus norvegicus; conditions: stimulation mix
Experimental: On DIV2, cells were pre-equilibrated in 10 μM Fluo-4 a.m. (Thermo Fisher Scientific, F14201) away from light for 1 h at 37°C. Next, cells were incubated in the indicator-free starvation medium to allow de-esterification for 20 min away from light at 37°C. Background fluorescence was then measured using the BMG POLARstar Optima Microplate Reader prior to adding the treatments and continuously measuring the fluorescence for the next 30 min. Fluorescence was measured using the bottom optics.

NCI-H1975 cells = system: NCI-H1975 cells; design: method as in Dong et al., 2019; conditions: growth of NCI-H1975 cells; ref Dong et al., 2019; read-out: IC50_Literature, EGFR; cited from earlier work
[1] = system: Calu-3 and NCI-H1781 cells; design: method as in Dong et al., 2019; conditions: growth of Calu-3 and NCI-H1781 cells; ref Dong et al., 2019; read-out: IC50_Literature, ERBB2; cited from earlier work
ERBB4 [2] = system: ERBB4; design: method as in Nam et al., 2011; conditions: tyrosine kinase assay kit (Panvera); ref Nam et al., 2011; read-out: IC50_Literature, ERBB4; cited from earlier work
ERBB4 [3] = molecular target: ERBB4 (Homo sapiens, UniProt Q15303); assay: ERBBprofiler barcoded split TEV assay, ERBB4; conditions: ERBB4 UAS (split TEV) IC50, PC12 cells; constant EGF 30 ng/mL, EGFld 10 ng/mL, serotonin 1 μM; 6 h; barcode readout; relative IC50
ERBB4 (Homo sapiens, UniProt Q15303), sequence (Q15303 26-1308): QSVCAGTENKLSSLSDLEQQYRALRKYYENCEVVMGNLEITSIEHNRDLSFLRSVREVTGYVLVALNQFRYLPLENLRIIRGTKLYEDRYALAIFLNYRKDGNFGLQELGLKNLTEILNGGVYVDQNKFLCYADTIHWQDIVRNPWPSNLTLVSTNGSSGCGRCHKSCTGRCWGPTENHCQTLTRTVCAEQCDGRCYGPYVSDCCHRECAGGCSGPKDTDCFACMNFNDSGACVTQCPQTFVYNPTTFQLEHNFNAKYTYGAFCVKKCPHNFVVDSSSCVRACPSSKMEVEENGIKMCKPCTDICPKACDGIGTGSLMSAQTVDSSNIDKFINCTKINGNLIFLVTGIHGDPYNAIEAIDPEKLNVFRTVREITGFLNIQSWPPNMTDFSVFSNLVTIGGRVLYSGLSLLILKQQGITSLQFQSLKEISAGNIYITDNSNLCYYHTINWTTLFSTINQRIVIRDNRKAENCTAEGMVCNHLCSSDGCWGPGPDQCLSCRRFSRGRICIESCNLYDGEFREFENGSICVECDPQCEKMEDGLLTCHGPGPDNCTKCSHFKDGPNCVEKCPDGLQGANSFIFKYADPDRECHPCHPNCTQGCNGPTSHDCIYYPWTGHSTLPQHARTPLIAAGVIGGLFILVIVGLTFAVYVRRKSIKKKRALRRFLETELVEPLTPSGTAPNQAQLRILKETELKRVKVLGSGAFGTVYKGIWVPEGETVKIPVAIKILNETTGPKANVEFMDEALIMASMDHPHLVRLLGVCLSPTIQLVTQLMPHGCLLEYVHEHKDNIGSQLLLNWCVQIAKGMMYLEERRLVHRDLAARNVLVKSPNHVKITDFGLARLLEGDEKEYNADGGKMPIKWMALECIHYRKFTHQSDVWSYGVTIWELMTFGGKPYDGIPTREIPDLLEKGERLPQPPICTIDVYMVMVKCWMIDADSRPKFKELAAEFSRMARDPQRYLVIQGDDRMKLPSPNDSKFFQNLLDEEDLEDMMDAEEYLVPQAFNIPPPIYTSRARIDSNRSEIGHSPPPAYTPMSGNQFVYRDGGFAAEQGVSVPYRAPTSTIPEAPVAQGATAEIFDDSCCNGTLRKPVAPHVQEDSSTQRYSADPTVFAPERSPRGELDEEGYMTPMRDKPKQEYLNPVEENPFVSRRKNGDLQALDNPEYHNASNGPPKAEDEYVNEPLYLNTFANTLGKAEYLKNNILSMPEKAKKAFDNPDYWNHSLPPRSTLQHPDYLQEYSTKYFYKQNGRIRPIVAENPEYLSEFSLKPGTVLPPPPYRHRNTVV

HTR2A = HTR2A (Homo sapiens, UniProt P28223); assay: ERBBprofiler barcoded split TEV assay, HTR2A
HTR2A, sequence (P28223 whole entry): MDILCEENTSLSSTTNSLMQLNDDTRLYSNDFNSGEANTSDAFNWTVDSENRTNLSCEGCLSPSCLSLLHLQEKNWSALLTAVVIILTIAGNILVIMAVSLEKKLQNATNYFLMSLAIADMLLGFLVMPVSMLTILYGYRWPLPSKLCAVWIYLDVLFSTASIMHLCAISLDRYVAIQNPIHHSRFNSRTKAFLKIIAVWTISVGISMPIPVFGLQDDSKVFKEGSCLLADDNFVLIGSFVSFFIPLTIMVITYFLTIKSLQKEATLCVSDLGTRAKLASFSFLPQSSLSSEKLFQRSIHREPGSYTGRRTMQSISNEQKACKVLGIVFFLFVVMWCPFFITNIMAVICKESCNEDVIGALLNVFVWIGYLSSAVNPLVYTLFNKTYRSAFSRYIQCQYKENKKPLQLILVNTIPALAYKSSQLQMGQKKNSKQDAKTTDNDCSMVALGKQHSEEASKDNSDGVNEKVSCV

ERBB2/3 = ERBB2/3 (Homo sapiens, UniProt P04626+P21860); assay: ERBBprofiler barcoded split TEV assay, ERBB2/3
ERBB2/3, sequence (P04626 23-1255): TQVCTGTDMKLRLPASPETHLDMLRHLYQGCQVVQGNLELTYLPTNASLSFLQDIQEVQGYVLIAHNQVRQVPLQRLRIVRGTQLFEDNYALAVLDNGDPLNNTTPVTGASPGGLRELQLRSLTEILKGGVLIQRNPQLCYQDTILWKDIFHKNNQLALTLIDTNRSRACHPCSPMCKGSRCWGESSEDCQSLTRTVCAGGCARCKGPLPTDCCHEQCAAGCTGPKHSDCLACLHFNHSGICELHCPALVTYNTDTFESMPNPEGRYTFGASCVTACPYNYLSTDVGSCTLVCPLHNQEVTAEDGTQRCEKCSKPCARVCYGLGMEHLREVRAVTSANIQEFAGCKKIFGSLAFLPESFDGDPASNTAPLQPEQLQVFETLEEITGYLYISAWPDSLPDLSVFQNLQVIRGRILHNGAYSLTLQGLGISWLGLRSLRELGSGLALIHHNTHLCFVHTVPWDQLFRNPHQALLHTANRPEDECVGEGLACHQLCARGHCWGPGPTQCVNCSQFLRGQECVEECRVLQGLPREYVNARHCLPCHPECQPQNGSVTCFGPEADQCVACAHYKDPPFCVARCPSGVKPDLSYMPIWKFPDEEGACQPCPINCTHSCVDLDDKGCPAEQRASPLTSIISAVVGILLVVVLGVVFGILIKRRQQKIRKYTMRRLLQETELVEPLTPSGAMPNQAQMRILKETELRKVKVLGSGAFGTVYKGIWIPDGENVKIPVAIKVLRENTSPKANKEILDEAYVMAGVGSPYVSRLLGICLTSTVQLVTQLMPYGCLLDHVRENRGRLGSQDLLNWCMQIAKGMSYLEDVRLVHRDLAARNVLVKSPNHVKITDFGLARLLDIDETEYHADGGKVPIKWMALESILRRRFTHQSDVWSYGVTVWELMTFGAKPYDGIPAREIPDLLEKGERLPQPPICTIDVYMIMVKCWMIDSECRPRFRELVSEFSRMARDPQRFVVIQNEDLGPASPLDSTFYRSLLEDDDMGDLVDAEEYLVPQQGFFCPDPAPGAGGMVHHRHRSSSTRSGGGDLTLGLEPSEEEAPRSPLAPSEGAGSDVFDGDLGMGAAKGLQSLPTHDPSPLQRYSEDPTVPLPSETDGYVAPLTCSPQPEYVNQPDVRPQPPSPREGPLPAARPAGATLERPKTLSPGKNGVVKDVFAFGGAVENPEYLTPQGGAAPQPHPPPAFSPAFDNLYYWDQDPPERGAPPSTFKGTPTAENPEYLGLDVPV
ERBB2/3, sequence (P21860 20-1342): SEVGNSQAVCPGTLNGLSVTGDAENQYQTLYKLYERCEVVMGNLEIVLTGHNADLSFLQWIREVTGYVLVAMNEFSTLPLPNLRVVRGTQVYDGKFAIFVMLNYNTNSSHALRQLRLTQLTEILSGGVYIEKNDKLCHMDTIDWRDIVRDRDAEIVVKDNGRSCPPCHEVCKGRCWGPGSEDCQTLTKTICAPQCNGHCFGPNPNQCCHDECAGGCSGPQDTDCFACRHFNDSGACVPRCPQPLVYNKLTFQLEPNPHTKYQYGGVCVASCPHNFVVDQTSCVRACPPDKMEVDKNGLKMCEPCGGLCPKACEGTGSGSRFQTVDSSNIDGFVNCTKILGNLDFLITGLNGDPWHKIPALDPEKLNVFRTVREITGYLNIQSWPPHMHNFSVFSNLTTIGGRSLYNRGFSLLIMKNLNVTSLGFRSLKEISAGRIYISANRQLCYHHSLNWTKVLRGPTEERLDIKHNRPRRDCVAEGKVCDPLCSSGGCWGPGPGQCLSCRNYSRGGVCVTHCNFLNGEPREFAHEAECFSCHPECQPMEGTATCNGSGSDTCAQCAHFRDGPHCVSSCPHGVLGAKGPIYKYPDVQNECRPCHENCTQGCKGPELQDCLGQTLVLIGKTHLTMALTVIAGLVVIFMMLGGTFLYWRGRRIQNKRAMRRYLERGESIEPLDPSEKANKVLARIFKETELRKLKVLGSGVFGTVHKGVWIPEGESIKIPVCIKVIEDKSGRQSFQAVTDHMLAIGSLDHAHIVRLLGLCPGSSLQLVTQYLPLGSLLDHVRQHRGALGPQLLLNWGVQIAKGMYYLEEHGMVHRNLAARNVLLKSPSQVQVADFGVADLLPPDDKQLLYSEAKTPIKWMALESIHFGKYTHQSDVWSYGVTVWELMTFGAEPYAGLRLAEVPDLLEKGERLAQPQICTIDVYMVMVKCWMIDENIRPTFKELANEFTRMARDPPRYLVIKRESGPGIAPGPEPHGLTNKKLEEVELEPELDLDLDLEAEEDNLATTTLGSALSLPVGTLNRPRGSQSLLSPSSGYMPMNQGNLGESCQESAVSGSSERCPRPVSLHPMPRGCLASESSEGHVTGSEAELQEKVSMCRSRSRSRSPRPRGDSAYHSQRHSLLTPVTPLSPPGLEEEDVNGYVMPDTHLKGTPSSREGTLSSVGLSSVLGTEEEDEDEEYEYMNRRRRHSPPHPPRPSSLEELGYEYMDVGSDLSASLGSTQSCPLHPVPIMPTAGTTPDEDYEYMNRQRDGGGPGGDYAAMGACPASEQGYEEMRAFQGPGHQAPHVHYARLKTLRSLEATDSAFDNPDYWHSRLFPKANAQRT

EGFR EGR1p = assay: ERBBprofiler barcoded EGR1p pathway sensor, EGFR co-transfected; conditions: Rattus norvegicus, PC-12, 6 h, read-out: EGFR EGR1p IC50
HTR2A NFAT = assay: ERBBprofiler barcoded NFAT pathway sensor, HTR2A co-transfected; conditions: Rattus norvegicus, PC-12, 6 h, read-out: HTR2A NFAT IC50
ERBB4 EGR1p = assay: ERBBprofiler barcoded EGR1p pathway sensor, ERBB4 co-transfected; conditions: Rattus norvegicus, PC-12, 6 h, read-out: ERBB4 EGR1p IC50
HTR2A EGR1p = assay: ERBBprofiler barcoded EGR1p pathway sensor, HTR2A co-transfected; conditions: Rattus norvegicus, PC-12, 6 h, read-out: HTR2A EGR1p IC50
ERBB2/3 EGR1p = assay: ERBBprofiler barcoded EGR1p pathway sensor, ERBB2/3 co-transfected; conditions: Rattus norvegicus, PC-12, 6 h, read-out: ERBB2/3 EGR1p IC50
[4] = system: ERBB receptors, HTR2A, and downstream signaling pathways; assay: ERBBprofiler multiplexed barcoded assay, overall statements across all receptor batches and sensors; conditions: for CRE sensor response at high compound concentration (barcoded): 10 μM compound, PC12 cells, stimulation mix
ERBB2/3 NFAT = assay: ERBBprofiler barcoded NFAT pathway sensor, ERBB2/3 co-transfected; assay type: cell-based, Rattus norvegicus; conditions: PC12 cells; constant EGF 30 ng/mL, EGFld 10 ng/mL, serotonin 1 μM; 6 h; barcode readout; relative IC50
EGFR [5] = system: EGFR; design: method as in Hasako et al., 2018; conditions: phospho-WB in NIH/3T3 cell lines; ref Hasako et al., 2018; read-out: IC50_Literature, EGFR; cited from earlier work
ERBB2 = system: ERBB2; design: method as in Hasako et al., 2018; conditions: biochemical kinase activity assay by Carna Biosciences; ref Hasako et al., 2018; read-out: IC50_Literature, ERBB2; cited from earlier work
ERBB4 [6] = system: ERBB4; design: method as in Hasako et al., 2018; conditions: biochemical kinase activity assay by Carna Biosciences; ref Hasako et al., 2018; read-out: IC50_Literature, ERBB4; cited from earlier work
EGFR [7] = molecular target: EGFR (Homo sapiens, UniProt P00533); assay: ERBBprofiler barcoded split TEV assay, EGFR

SMILES | ERBB4 NFAT IC50 (ERBB4 NFAT) | IC50 (ERBB4 [3]) | IC50 (HTR2A) | IC50 (ERBB2/3) | IC50 (EGFR EGR1p) | IC50 (HTR2A NFAT) | IC50 (ERBB4 EGR1p) | IC50 (HTR2A EGR1p) | IC50 (ERBB2/3 EGR1p) | CRE sensor response at high compound concentration (barcoded) [4] | other results
C=CC(=O)N1CCC(Oc2cc3c(Nc4ccc(Cl)c(Cl)c4F)ncnc3cc2OC)CC1 [Poziotinib, Poziotinib (HM781-36B)] | no effect (EGFR, ERBB2/3, ERBB4) - 0.016 µM (HTR2A) | 3.11 nM | 4.56 nM | 2.63 nM | 0.89 nM | 16 nM | 0.87 nM | 1.14 nM | 0.79 nM | upregulation of the CRE sensor; also recorded: upregulated CRE sensor response | EGFR NFAT IC50 (EGFR NFAT; PC12 cells, constant EGF 30 ng/mL, EGFld 10 ng/mL, serotonin 1 μM, 6 h, barcode readout, relative IC50): no effect (EGFR, ERBB2/3, ERBB4) - 0.016 µM (HTR2A); effect on CRE sensor activity (luciferase), in words (CRE sensor; PC12 cells, CRE sensor only, stimulation mix): CRE sensor activation at high compound concentrations; EC50 (CRE sensor; Rattus norvegicus, PC-12): 1640 nM; effect on cAMP levels (GloSensor) (cAMP): increase of cAMP; EC50 (cAMP; Rattus norvegicus, PC-12, 0.25 h, constant stimulation mix, 15 min, cAMP increase): 2910 nM; compound concentration resulting in elevated cAMP (GloSensor) (cAMP; stimulation mix): ≥ 3 µM; effect on calcium levels (Fluo-4 AM) (calcium): but not calcium levels; IC50 (NCI-H1975 cells): 1.7 to 8.78 nM; IC50 [1]: 2.5 to 6.2 nM; IC50 (ERBB4 [2]): 23.5 nM
C=CC(=O)N[C@H]1C=C(C)c2c(-c3cnc4ccccc4c3)c3c(N)ncnc3n2C1 [TAS6417, TAS6417 (Zipalertinib)] | no effect (EGFR, ERBB2/3, ERBB4) - 0.848 µM (HTR2A, small effect) | 91 nM | 444 nM | 206 nM | 95 nM | 848 nM | 55 nM | 193 nM | 267 nM | upregulated CRE sensor response | EGFR NFAT IC50 (EGFR NFAT): no effect (EGFR, ERBB2/3, ERBB4) - 0.848 µM (HTR2A, small effect); ERBB2/3 NFAT IC50 (ERBB2/3 NFAT): no effect (EGFR, ERBB2/3, ERBB4) - 0.848 µM (HTR2A, small effect); IC50 (EGFR [5]): 368 nM; IC50 (ERBB2): 390 nM; IC50 (ERBB4 [6]): 4 nM; IC50 (EGFR [7]): 92 nM; IC50_ERBBpro, cAMP/Ca2+ (CRE sensor) ([4]; ERBBprofiler, no receptor named in the cell): no effect
